This passage reports residual activity results from ChEMBL document CHEMBL4507268 (2021).

Each structure is given as a SMILES string.

Common to all, as to details: Compound concentration 1000.0 nM
Assay [1] deals with Serine/threonine-protein kinase 33 (Homo sapiens) (UniProt Q9BYT3).
The target of assay [2] is T1, Serine/threonine-protein kinase 4 (Homo sapiens) (UniProt Q13043).
T1 sequence (whole entry): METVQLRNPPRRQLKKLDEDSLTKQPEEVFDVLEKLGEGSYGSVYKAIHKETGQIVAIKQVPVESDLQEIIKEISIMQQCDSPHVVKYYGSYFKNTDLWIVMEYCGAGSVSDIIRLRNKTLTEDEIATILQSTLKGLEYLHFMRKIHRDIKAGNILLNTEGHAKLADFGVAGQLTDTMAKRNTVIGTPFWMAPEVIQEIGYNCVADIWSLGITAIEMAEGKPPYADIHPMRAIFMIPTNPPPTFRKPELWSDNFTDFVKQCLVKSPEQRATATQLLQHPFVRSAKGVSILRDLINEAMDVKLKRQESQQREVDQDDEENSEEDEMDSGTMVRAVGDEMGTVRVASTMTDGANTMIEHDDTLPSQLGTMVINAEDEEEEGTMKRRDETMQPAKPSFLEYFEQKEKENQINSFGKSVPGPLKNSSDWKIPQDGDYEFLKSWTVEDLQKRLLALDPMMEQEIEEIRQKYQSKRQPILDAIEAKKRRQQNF

For assay [3], the target named is T2, Serine/threonine-protein kinase D1 (Homo sapiens) (UniProt Q15139).
T2 sequence (whole entry): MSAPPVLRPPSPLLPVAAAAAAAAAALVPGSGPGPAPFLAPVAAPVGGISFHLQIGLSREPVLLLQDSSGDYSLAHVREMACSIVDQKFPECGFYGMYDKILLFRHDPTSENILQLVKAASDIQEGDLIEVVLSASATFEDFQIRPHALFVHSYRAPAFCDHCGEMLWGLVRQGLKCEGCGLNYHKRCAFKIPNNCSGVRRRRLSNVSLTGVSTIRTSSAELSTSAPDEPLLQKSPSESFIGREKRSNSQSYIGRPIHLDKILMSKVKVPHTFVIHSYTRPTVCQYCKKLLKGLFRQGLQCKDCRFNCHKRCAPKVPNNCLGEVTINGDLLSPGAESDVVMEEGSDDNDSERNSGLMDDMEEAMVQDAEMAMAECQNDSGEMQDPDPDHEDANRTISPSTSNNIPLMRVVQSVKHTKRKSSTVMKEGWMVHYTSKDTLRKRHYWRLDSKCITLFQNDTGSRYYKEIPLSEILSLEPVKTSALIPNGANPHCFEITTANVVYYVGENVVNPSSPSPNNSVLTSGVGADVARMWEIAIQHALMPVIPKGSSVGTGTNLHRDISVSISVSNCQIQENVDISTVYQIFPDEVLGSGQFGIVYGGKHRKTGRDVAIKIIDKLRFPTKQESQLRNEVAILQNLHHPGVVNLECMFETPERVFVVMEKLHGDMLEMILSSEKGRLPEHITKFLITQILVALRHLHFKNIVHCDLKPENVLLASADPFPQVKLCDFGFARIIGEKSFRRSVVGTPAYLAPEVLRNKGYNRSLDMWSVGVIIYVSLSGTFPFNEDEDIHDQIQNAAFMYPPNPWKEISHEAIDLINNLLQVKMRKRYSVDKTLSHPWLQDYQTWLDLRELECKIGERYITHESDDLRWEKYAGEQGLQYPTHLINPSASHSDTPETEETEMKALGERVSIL

The test system of assay [4] is Proto-oncogene tyrosine-protein kinase receptor Ret (Homo sapiens), P07949 [M918T].
The target in assay [5] is Leukocyte tyrosine kinase receptor (Homo sapiens) (UniProt P29376).
For assay [6], the system named is Proto-oncogene tyrosine-protein kinase receptor Ret (Homo sapiens), P07949 [V804L].
For assay [7], the system named is Phosphatidylinositol 4,5-bisphosphate 3-kinase catalytic subunit alpha isoform (Homo sapiens), P42336 [Q546K].
Assay [8] concerns Tyrosine-protein kinase ABL1 (Homo sapiens), P00519 [F317L].
For assay [9], the target named is T3, Tyrosine-protein kinase JAK3 (Homo sapiens) (UniProt P52333).
T3 sequence (whole entry): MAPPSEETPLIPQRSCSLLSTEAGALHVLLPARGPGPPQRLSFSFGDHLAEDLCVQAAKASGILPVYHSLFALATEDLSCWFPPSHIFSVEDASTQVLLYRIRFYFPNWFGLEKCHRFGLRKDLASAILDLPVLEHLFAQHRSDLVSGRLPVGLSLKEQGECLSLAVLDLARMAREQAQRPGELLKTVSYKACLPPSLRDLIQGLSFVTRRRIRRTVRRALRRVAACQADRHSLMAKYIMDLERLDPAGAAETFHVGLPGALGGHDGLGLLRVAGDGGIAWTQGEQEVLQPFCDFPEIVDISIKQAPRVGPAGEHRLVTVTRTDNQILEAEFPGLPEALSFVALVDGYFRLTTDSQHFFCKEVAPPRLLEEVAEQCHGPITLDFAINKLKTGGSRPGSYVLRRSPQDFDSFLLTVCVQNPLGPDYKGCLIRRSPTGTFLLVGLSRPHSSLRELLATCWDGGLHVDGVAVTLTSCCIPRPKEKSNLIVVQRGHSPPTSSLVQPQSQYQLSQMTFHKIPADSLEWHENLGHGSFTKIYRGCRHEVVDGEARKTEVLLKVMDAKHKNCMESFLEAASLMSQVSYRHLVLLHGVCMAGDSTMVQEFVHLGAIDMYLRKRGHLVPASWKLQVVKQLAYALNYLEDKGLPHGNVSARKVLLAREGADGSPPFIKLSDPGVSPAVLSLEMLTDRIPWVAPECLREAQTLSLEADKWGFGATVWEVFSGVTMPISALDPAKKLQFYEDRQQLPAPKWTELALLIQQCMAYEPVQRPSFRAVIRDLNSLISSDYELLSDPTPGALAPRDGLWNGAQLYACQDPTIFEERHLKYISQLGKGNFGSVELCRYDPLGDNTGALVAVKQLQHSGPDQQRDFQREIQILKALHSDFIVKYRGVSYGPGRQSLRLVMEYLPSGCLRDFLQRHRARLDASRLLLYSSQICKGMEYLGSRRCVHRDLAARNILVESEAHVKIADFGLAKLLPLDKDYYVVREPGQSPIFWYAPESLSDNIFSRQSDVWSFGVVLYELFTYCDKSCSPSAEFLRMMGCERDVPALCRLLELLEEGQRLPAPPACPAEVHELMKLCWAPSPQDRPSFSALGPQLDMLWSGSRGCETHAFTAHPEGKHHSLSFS

Assay [10] has as its target Mitogen-activated protein kinase 8 (Homo sapiens) (UniProt P45983).
Assay [11] has as its target Phosphorylase b kinase gamma catalytic chain, skeletal muscle/heart isoform (Homo sapiens) (UniProt Q16816).

Sequence of Mitogen-activated protein kinase 8 (Homo sapiens) (P45983 whole entry, canonical isoform): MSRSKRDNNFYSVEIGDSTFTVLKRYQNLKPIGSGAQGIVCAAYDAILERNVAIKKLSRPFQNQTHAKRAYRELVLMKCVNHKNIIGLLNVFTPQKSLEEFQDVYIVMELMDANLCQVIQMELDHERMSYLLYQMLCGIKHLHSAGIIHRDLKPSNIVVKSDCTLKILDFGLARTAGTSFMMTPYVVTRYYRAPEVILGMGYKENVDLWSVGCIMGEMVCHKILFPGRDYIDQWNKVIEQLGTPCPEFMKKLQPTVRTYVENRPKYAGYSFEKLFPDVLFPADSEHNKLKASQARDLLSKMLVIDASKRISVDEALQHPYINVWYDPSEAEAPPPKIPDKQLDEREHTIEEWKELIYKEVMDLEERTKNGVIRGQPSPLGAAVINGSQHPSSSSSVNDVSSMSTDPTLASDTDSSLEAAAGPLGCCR
Sequence of Proto-oncogene tyrosine-protein kinase receptor Ret (Homo sapiens), P07949 [M918T] (P07949 whole entry M918T): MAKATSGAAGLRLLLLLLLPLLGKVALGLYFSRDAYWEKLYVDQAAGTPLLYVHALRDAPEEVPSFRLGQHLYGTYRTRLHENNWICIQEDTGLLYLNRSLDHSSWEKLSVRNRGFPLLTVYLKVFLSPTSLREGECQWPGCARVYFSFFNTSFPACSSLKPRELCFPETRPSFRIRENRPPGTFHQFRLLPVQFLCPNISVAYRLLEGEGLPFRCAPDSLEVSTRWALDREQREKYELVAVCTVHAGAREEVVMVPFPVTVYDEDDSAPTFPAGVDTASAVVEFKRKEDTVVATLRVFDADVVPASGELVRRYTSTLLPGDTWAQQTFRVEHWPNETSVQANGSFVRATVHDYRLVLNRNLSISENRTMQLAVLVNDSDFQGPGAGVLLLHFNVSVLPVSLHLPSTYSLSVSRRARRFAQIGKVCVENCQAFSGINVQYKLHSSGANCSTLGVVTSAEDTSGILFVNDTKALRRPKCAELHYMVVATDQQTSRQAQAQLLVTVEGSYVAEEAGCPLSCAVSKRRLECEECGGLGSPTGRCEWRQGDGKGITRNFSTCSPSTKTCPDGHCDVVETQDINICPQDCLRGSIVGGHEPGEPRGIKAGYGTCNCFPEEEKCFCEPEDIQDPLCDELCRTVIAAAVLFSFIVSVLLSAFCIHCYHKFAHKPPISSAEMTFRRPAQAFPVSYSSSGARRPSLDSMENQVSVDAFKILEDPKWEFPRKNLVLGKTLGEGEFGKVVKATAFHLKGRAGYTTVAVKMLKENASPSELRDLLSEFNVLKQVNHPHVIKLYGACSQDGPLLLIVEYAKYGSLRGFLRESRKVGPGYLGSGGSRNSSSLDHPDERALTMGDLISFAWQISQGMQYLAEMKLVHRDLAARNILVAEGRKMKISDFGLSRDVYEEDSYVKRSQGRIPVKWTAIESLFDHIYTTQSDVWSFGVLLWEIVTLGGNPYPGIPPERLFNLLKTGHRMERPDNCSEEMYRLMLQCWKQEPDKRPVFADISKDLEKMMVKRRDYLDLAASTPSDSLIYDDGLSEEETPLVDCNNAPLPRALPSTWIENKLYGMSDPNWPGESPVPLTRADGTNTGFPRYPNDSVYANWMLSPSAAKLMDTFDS
Sequence of Phosphorylase b kinase gamma catalytic chain, skeletal muscle/heart isoform (Homo sapiens) (Q16816 whole entry, looked up, canonical isoform): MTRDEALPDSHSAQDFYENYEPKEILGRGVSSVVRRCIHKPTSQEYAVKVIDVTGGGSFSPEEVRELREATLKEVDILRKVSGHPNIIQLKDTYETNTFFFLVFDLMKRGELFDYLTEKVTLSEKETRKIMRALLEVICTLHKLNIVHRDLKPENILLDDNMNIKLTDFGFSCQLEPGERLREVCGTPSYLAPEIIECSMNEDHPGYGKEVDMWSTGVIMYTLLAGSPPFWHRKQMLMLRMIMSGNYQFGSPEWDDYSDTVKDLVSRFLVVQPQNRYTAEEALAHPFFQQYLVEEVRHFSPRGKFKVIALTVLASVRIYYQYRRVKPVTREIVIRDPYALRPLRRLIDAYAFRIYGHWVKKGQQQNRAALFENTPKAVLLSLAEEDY
Sequence of Proto-oncogene tyrosine-protein kinase receptor Ret (Homo sapiens), P07949 [V804L] (P07949 whole entry V804L, canonical isoform): as the sequence (P07949 whole entry M918T) above, with V804L, T918M counted along it
Sequence of Tyrosine-protein kinase ABL1 (Homo sapiens), P00519 [F317L] (P00519 whole entry F317L): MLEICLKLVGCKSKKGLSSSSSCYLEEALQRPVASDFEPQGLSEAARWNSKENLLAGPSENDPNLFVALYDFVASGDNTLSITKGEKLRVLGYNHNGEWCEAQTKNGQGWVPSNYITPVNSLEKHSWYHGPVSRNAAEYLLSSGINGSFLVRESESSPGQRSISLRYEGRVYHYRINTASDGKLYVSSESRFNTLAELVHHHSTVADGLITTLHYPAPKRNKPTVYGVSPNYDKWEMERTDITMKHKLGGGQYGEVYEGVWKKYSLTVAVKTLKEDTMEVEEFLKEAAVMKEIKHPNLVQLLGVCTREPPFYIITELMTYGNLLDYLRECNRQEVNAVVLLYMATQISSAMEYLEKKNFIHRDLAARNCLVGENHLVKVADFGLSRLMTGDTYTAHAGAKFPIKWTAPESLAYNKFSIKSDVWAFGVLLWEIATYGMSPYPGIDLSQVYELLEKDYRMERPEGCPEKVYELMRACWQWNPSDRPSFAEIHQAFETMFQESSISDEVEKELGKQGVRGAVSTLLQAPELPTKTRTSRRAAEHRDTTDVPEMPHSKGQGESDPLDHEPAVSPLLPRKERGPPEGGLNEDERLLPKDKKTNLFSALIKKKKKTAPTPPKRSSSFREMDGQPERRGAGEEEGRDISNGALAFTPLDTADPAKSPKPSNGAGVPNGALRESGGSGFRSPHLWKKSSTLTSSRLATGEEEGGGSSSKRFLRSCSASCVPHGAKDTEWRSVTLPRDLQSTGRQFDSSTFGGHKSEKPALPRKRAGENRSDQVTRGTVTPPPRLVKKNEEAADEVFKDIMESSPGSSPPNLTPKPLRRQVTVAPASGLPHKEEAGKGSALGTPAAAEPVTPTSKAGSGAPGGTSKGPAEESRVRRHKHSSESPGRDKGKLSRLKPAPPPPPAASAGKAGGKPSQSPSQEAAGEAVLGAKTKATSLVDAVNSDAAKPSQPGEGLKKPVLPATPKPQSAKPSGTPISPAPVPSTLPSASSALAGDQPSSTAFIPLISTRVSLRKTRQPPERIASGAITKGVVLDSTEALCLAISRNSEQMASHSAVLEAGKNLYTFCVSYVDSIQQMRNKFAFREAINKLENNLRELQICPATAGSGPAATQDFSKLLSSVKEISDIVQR
Sequence of Serine/threonine-protein kinase 33 (Homo sapiens) (Q9BYT3 whole entry, looked up): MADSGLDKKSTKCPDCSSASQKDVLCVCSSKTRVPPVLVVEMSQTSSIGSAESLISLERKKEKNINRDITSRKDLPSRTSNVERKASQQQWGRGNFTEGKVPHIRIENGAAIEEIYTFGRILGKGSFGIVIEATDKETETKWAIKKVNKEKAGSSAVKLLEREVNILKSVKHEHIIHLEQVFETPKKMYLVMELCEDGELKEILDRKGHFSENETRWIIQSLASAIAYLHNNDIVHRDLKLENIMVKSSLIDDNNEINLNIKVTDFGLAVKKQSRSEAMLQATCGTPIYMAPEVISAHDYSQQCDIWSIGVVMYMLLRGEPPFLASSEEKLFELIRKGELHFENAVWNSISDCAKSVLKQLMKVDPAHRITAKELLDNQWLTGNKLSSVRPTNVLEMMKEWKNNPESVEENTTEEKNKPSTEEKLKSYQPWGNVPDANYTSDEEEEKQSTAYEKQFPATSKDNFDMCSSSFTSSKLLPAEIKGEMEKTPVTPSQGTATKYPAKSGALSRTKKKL
Sequence of Leukocyte tyrosine kinase receptor (Homo sapiens) (P29376 whole entry): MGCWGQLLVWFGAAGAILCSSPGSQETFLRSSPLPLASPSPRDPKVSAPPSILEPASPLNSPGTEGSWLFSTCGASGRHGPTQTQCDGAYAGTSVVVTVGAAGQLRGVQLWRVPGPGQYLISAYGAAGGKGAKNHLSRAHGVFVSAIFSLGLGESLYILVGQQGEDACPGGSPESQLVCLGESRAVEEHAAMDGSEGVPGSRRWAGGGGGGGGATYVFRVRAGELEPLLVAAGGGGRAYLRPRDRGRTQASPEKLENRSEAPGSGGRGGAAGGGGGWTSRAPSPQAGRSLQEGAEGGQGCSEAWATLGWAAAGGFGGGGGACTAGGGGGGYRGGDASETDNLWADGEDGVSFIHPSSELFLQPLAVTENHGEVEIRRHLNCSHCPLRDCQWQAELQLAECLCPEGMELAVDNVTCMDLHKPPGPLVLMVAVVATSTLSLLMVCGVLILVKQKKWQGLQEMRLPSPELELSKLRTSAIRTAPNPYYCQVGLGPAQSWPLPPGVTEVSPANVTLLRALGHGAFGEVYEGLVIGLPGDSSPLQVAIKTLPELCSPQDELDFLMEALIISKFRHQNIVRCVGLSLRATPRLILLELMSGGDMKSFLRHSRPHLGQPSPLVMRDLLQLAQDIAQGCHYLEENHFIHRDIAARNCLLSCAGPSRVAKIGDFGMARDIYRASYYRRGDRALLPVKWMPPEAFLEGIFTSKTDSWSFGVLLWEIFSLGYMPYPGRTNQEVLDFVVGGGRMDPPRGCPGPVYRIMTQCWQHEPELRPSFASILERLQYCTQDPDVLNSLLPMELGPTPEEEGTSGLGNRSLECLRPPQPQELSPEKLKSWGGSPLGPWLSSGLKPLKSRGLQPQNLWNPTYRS

Turning to `Cc1nc(C2CCN(C(=O)c3ccc(OC(F)(F)F)cc3N)CC2)c2ncc(N3CCN(C)CC3)cc2n1` [BAY-693], the residual activity was 100% in [1]; 85% in assay [2]; 79% in assay [3]; 86% in [4]; 86% in assay [5]; 73% in assay [6]. The residual activity in assay [7] was 88%; in [8], 97%; in [9] it was 100%; in [10], 98%; in assay [11], 100%.
For `CN1CCN(c2cnc3c(C4CCN(C(=O)c5ccc(OC(F)(F)F)cc5N)CC4)ncnc3c2)CC1` [BAY-885], the residual activity was 99% in assay [1]; 84% in [2]; 85% in assay [3]; 100% in assay [4]; 49% in assay [5]; 97% in assay [6]. Also, the residual activity in assay [7] is 100%; in assay [8] it was 100%; in assay [9], 100%; in assay [10] it was 97%; in [11] it was 100%.
